These results are taken from patent US20230348369A1 (Cytokinetics, Inc., priority 2020, published 2023).

The structures appear in SMILES notation. Like-named read-outs stand apart in the source and are kept apart here.

The target in this experiment is human NAMPT (Homo sapiens, UniProt P43490). Description: Human recombinant enzyme assay (NMN fluorescence biochemical assay, activation of NAMPT). In a few lines: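 Activation of recombinant human NAMPT (6 nM) with 2.5 mM ATP, 20 μM PRPP and 150 μM nicotinamide in 50 mM HEPES pH 7.2, 1 mM DTT, 1 mM CHAPS, 50 mM NaCl, 100 mM MgCl2; 60 min, ambient temperature. NMN formed was derivatized with acetophenone/KOH/formic acid, fluorescence read at 355/460 nm after 40 min.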
human NAMPT, sequence (P43490 whole entry): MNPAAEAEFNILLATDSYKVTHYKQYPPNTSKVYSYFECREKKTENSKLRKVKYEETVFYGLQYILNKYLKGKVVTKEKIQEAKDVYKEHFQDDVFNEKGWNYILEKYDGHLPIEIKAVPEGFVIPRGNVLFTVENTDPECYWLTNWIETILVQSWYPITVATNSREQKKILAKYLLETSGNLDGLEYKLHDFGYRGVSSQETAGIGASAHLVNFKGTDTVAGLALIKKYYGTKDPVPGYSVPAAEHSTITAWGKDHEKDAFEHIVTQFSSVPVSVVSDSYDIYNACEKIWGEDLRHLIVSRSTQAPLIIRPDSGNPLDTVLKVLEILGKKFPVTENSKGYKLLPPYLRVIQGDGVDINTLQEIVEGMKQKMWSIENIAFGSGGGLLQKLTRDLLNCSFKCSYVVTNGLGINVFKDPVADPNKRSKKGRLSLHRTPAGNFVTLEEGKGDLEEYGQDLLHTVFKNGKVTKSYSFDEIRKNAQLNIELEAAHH

The mark [1] stands for this setting: Table A, human recombinant NAMPT, NMN formation, 60 min.
Setting [2] is: Table A, human recombinant NAMPT, NMN formation, 60 min, read-out: EC50 Human.

Broadly, the EC50 is the concentration giving half of the maximal effect. In the case of `COc1ccc(CNC(=O)NC2CC3(C2)CC(C(=O)N[C@@H]2CCc4ccccc42)C3)cc1` (stereo partly drawn) [Compound 91, (R)-N-(2,3-dihydro-1H-inden-1-yl)-6-(3-(4-methoxybenzyl)ureido)spiro[3.3]heptane-2-carboxamide], the “AC1.4 Human” value under setting [1] was found to be 3.7 µM. In addition, the EC50 under setting [2] stood at 13 µM.
Take `COc1ccc(CNC(=O)NC2CC3(C2)CC(C(=O)N[C@H]2CCc4ccccc42)C3)cc1` (stereo partly drawn) [Compound 92, (S)-N-(2,3-dihydro-1H-inden-1-yl)-6-(3-(4-methoxybenzyl)ureido)spiro[3.3]heptane-2-carboxamide]: the “AC1.4 Human” value under setting [1] worked out at 2.9 µM. Moreover, under setting [2], the EC50 was found to be 13.5 µM.
The corresponding values for `COc1ccc(CNC(=O)NC2CC3(C2)CC(C(=O)NC2CC(CO)c4ccccc42)C3)cc1` (centres unmarked) [Compound 93, N-(3-(hydroxymethyl)-2,3-dihydro-1H-inden-1-yl)-6-(3-(4-methoxybenzyl)ureido)spiro[3.3]heptane-2-carboxamide] are 6.3 µM and 34.8 µM.
Regarding `COc1ccc(CNC(=O)NC2CC3(C2)CC(C(=O)NC2Cc4ccccc4C2O)C3)cc1` (centres unmarked) [Compound 94, N-(1-hydroxy-2,3-dihydro-1H-inden-2-yl)-6-(3-(4-methoxybenzyl)ureido)spiro[3.3]heptane-2-carboxamide], the “AC1.4 Human” value under setting [1] was 11.0 µM. In addition, under setting [2], the EC50 turned out to be 38.7 µM.
The like results for `COc1ccc(CNC(=O)NC2CC3(C2)CC(C(=O)NC2Cc4ccccc4C2)C3)cc1` (centres unmarked) [Compound 95, N-(2,3-dihydro-1H-inden-2-yl)-6-(3-(4-methoxybenzyl)ureido)spiro[3.3]heptane-2-carboxamide] were, in that order, 4.3 µM and 13.3 µM.
Take `COc1ccc(CNC(=O)NC2CC3(C2)CC(C(=O)N[C@@H]2CCc4ccccc4C2)C3)cc1` (stereo partly drawn) [Compound 96, (R)-6-(3-(4-methoxybenzyl)ureido)-N-(1,2,3,4-tetrahydronaphthalen-2-yl)spiro[3.3]heptane-2-carboxamide]: under setting [1], the “AC1.4 Human” value came out at 2.6 µM. Moreover, the concentration for a half-maximal effect (EC50) under setting [2] is 4.1 µM.
The corresponding values for `COc1ccc(CNC(=O)NC2CC3(C2)CC(C(=O)N2CCCc4cc(F)ccc42)C3)cc1` (centres unmarked) [Compound 101, 1-(6-(6-fluoro-1,2,3,4-tetrahydroquinoline-1-carbonyl)spiro[3.3]heptan-2-yl)-3-(4-methoxybenzyl)urea] are 0.2 µM and 2.7 µM.
The corresponding values for `COc1ccc(CNC(=O)NC2CC3(C2)CC(C(=O)N2CCCc4ccc(F)c(F)c42)C3)cc1` (centres unmarked) [Compound 102] are 8.0 µM and 33.3 µM.
On to `COc1ccc(CNC(=O)NC2CC3(C2)CC(C(=O)N2CCCc4cc(OC(F)F)ccc42)C3)cc1` (centres unmarked) [Compound 103, 1-(6-(6-(difluoromethoxy)-1,2,3,4-tetrahydroquinoline-1-carbonyl)spiro[3.3]heptan-2-yl)-3-(4-methoxybenzyl)urea], for which the “AC1.4 Human” value under setting [1] was determined as 0.3 µM. Under setting [2], the EC50 worked out at 7 µM.
Consider `COc1ccc(CNC(=O)NC2CC3(C2)CC(C(=O)N2CCCc4cc(C(F)(F)F)ccc42)C3)cc1` (centres unmarked) [Compound 104, 1-(4-methoxybenzyl)-3-(6-(6-(trifluoromethyl)-1,2,3,4-tetrahydroquinoline-1-carbonyl)spiro[3.3]heptan-2-yl)urea], for which the “AC1.4 Human” value under setting [1] was 0.5 µM. Under setting [2], the EC50 was 10.7 µM.
In the case of `COc1ccc(CNC(=O)NC2CC3(C2)CC(C(=O)N2CCCc4c(F)cccc42)C3)cc1` (centres unmarked) [Compound 105, 1-(6-(5-fluoro-1,2,3,4-tetrahydroquinoline-1-carbonyl)spiro[3.3]heptan-2-yl)-3-(4-methoxybenzyl)urea], the “AC1.4 Human” value under setting [1] came to 0.1 µM. Further, under setting [2], the concentration giving a half-maximal response (EC50) was determined as 2.2 µM.
On to `COc1ccc(CNC(=O)NC2CC3(C2)CC(C(=O)N2CCCc4ccc(F)cc42)C3)cc1` (centres unmarked) [Compound 106, 1-(6-(7-fluoro-1,2,3,4-tetrahydroquinoline-1-carbonyl)spiro[3.3]heptan-2-yl)-3-(4-methoxybenzyl)urea], for which the “AC1.4 Human” value under setting [1] is 0.1 µM. The EC50 under setting [2] came out at 1.8 µM.
The like results for `COc1ccc(CNC(=O)NC2CC3(C2)CC(C(=O)N2CCCc4cc(OC(F)(F)F)ccc42)C3)cc1` (centres unmarked) [Compound 107, 1-(4-methoxybenzyl)-3-(6-(6-(trifluoromethoxy)-1,2,3,4-tetrahydroquinoline-1-carbonyl)spiro[3.3]heptan-2-yl)urea] were, in that order, 2.9 µM and 48.8 µM.
Turning to `COc1ccc(CNC(=O)NC2CC3(C2)CC(C(=O)N2CCCc4ccc(C)cc42)C3)cc1` (centres unmarked) [Compound 108, 1-(4-methoxybenzyl)-3-(6-(7-methyl-1,2,3,4-tetrahydroquinoline-1-carbonyl)spiro[3.3]heptan-2-yl)urea], the “AC1.4 Human” value under setting [1] was 0.1 µM. In addition, under setting [2], the EC50 turned out to be 1.4 µM.
The like results for `CC(C)(O)CN1CCN(C(=O)C2CC3(CC(NC(=O)NCc4ccc(F)cc4)C3)C2)CC1` (centres unmarked) [Compound 109, 1-(4-fluorobenzyl)-3-(6-(4-(2-hydroxy-2-methylpropyl)piperazine-1-carbonyl)spiro[3.3]heptan-2-yl)urea] were, in that order, 3.5 µM and 10.2 µM.
In the case of `COc1ccc(CNC(=O)NC2CC3(C2)CC(C(=O)N2CCN(C4COC4)CC2)C3)cc1` (centres unmarked) [Compound 111, 1-(4-methoxybenzyl)-3-(6-(4-(oxetan-3-yl)piperazine-1-carbonyl)spiro[3.3]heptan-2-yl)urea], the “AC1.4 Human” value under setting [1] is 1.0 µM. Also, the EC50 under setting [2] is 26.8 µM.
The corresponding values for `COc1ccc(CNC(=O)NC2CC3(C2)CC(C(=O)N2CCN(CC4CC4)CC2)C3)cc1` (centres unmarked) [Compound 112, 1-(6-(4-(cyclopropylmethyl)piperazine-1-carbonyl)spiro[3.3]heptan-2-yl)-3-(4-methoxybenzyl)urea] are 3.0 µM and 46.9 µM.
Consider `COc1ccc(CNC(=O)NC2CC3(C2)CC(C(=O)N2CCN(C)CC2CO)C3)cc1` (centres unmarked) [Compound 113, 1-(6-(2-(hydroxymethyl)-4-methylpiperazine-1-carbonyl)spiro[3.3]heptan-2-yl)-3-(4-methoxybenzyl)urea], for which the “AC1.4 Human” value under setting [1] worked out at 3.8 µM. For the same compound, the EC50 under setting [2] stood at 51.6 µM.
The corresponding values for `O=C(NCc1ccc(Cl)cc1)NC1CC2(C1)CC(NC(=O)c1ccccc1)C2` (centres unmarked) [Compound 114, N-(6-(3-(4-chlorobenzyl)ureido)spiro[3.3]heptan-2-yl)benzamide] are 11.0 µM and 33.1 µM.
The like results for `O=C(Cc1ccccc1)NC1CC2(C1)CC(NC(=O)NCc1ccc(Cl)cc1)C2` (centres unmarked) [Compound 115, N-(6-(3-(4-chlorobenzyl)ureido)spiro[3.3]heptan-2-yl)-2-phenylacetamide] were, in that order, 10.2 µM and 14.7 µM.
Consider `COc1ccc(CNC(=O)NC2CC3(C2)CN(S(=O)(=O)c2ccccc2Cl)C3)cc1` [Compound 116, 1-(2-((2-chlorophenyl)sulfonyl)-2-azaspiro[3.3]heptan-6-yl)-3-(4-methoxybenzyl)urea], for which the EC50 is 51.3 µM. The “AC1.4 Human” value under setting [1] stood at 8.0 µM.
For `COc1ccc(CNC(=O)NC2CC3(C2)CN(S(=O)(=O)Cc2ccccc2Cl)C3)cc1` [Compound 117, 1-(2-((2-chlorobenzyl)sulfonyl)-2-azaspiro[3.3]heptan-6-yl)-3-(4-methoxybenzyl)urea], the “AC1.4 Human” value under setting [1] was determined as 3.2 µM. The EC50 under setting [2] amounted to 33.9 µM.
